According to PubChem BioAssay AID1949 (Southern Research Institute, 2009):
≈ marks a conversion by molar mass, not a printed value. Inconclusive results are not listed. Calls of active or inactive are those of the source. No rule for the calls is given here.

Tested on: M. tuberculosis H37Rv growth inhibition
Experiment: Confirmatory growth inhibition assay against Mycobacterium tuberculosis H37Rv, potency (AID 1949);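 also: bacteria grown 7 days with compound before Alamar blue readout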

Structure (SMILES)	IC50
Cc1cc(C)nc(/N=C(\N)Nc2cc(Cl)ccc2Cl)n1	12.3 µg/mL (≈ 39.7 µM)
Cc1ccc(N2C(=O)c3cccc4c(N5CCN(C)CC5)ccc(c34)C2=O)c2cccnc12	49.3 µg/mL (≈ 113 µM)
Nc1c2c(nc3sc4c(c13)CCCC4)CCCC2	0.6 µg/mL (≈ 2.32 µM)
N#Cc1c(NC(=S)NC(=O)c2ccc(Cl)cc2Cl)sc2c1CCCCC2	3.36 µg/mL (≈ 7.92 µM)
NC(N)=N/N=C/c1ccc(OCc2ccc(Cl)cc2Cl)cc1	11 µg/mL (≈ 32.6 µM)
CC12CC3CC(C)(C1)CC(C(=O)Nc1nc4ccccc4s1)(C3)C2	0.24 µg/mL (≈ 0.705 µM)
Cc1cc2ncn(CC(O)COc3ccc(C(C)C)cc3)c2cc1C (stereo not given)	5.42 µg/mL (≈ 16 µM)
Cc1ccc(-c2csc3nc(SCC(N)=O)n(-c4ccccc4)c(=O)c23)cc1C	2.98 µg/mL (≈ 7.07 µM)
CCN(CC)C(=S)NC(=O)c1ccc(F)cc1	3.03 µg/mL (≈ 11.9 µM)
O=C(Nc1nccs1)c1cc(Cl)cc(Cl)c1	10.2 µg/mL (≈ 37.2 µM)
N#Cc1cc2c(ccc3ccccc32)oc1=O	2.12 µg/mL (≈ 9.58 µM)
S=C(NCCc1ccccc1)NCCc1ccc(Cl)cc1	9.95 µg/mL (≈ 31.2 µM)
Cc1ccc(C(=O)CCNc2ccc(F)cc2)cc1	> 50 µg/mL (inactive)
O=C(NC1CCCCC1)c1ccc(COc2cccc3ccccc23)o1	4.65 µg/mL (≈ 13.3 µM)
CCOC(=O)c1ccc(NC(=S)NC(=O)CCc2ccccc2)cc1	1.76 µg/mL (≈ 4.94 µM)
CCc1nc2ccccc2n1CCCOc1ccccc1	0.5 µg/mL (≈ 1.78 µM)
O=C(Oc1cccc2cccnc12)c1ccccc1F	2.7 µg/mL (≈ 10.1 µM)
O=C(CN1CCN(CCN2C(=O)c3cccc4cccc(c34)C2=O)CC1)c1ccc(Cl)cc1	6.6 µg/mL (≈ 14.3 µM)
Cc1cccc(C(=O)NC(=S)Nc2ccc([N+](=O)[O-])cc2O)c1	0.19 µg/mL (≈ 0.573 µM)
O=C(Nc1ccc(F)c(Cl)c1)C1CC2CCCC(C1)C2=O (stereo not given)	39.7 µg/mL (≈ 128 µM)
CCC(=O)Nc1ccc2oc(-c3c(F)c(F)c(F)c(F)c3F)nc2c1	10.5 µg/mL (≈ 29.4 µM)
C#CCOc1c(Cl)cc(/C=C/[N+](=O)[O-])cc1Cl	> 50 µg/mL (inactive)
CC1CCN(c2nnnc3c2sc2nc(N4CCOCC4)c4c(c23)CCCC4)CC1	> 50 µg/mL (inactive)

Structure (SMILES)	IC50
CCC(C)(C)C1CCc2sc3ncnc(N4CCN(C)CC4)c3c2C1 (stereo not given)	6.39 µg/mL (≈ 17.8 µM)
Cc1nc(SCC(=O)N2CCC(C)CC2)c2c3c(sc2n1)CCC3	> 50 µg/mL (inactive)
CC1C(c2ccccc2)=[N+]([O-])C(C)(c2ccc(F)cc2)N1O (stereo not given)	> 50 µg/mL (inactive)
CCC(=O)Oc1cccc2ccc(/C=C/c3ccc(C(=O)OC)cc3)nc12	3.21 µg/mL (≈ 8.88 µM)
O=C(Nc1ccc(-c2cc3ccccc3oc2=O)cc1)c1cc(-n2cnnc2)ccc1Cl	6.92 µg/mL (≈ 15.6 µM)
CCN(CC)CC(O)Cn1c(C)c(-c2ccccc2)c2cc([N+](=O)[O-])ccc21 (stereo not given)	29.4 µg/mL (≈ 77 µM)
O=C(CC1COc2ccccc2O1)Nc1ccc(Br)cc1 (stereo not given)	11 µg/mL (≈ 31.6 µM)
C=CCNCCCOc1ccc(Cl)cc1C(C)(C)C	6.96 µg/mL (≈ 24.7 µM)
CCOC(=O)Cc1c(C)nc2c(-c3ccc(Cl)cc3)c[nH]n2c1=O	1.95 µg/mL (≈ 5.64 µM)
CC(C)OC(=O)COc1ccc2c(=O)c(Oc3ccccc3Br)coc2c1	13.9 µg/mL (≈ 32.1 µM)
CC1CC(C)CN(C(=O)Nc2ccc(Cl)c(Cl)c2)C1 (stereo not given)	1.21 µg/mL (≈ 4.02 µM)
O=C(Oc1ccccc1)c1cccc(COC(=O)c2cnccn2)c1	28 µg/mL (≈ 83.8 µM)
Cc1c(C(=O)NC(=S)Nc2ccc(Oc3ccc(Cl)cc3)cc2)cccc1[N+](=O)[O-]	1.49 µg/mL (≈ 3.37 µM)
CCc1cc(C(=O)OC)c(NC(=S)NCc2ccc(Cl)c(Cl)c2)s1	0.14 µg/mL (≈ 0.347 µM)
N#Cc1ccc(NC(=O)CSc2ccc(Br)cc2)cc1	3.04 µg/mL (≈ 8.75 µM)
COC(=O)c1sc(NC(=O)c2c(F)c(F)c(F)c(F)c2F)c(C(N)=O)c1C	< 0.1 µg/mL
C/C(=N/N=C1\NC(=O)C(Cc2ccc(F)cc2)S1)c1ccc(Cl)cc1 (stereo not given)	1.48 µg/mL (≈ 3.94 µM)
CCOc1ccccc1C(=O)Nc1ccccc1O	8.93 µg/mL (≈ 34.7 µM)
Cc1cc(Br)c2[nH]c(O)c(N=NC(=O)COc3ccc4ccccc4c3)c2c1	12 µg/mL (≈ 27.5 µM)
CCOC(=O)c1cccc(NC(=O)C(Cl)Cl)c1	3.07 µg/mL (≈ 11.1 µM)
CC(C)C(=O)N1CCN(c2ccccc2NC(=O)c2ccc([N+](=O)[O-])o2)CC1	1.95 µg/mL (≈ 5.05 µM)
COc1cccc(N2CCN(C(=O)Nc3ccc(Cl)c(Cl)c3)CC2)c1	9.41 µg/mL (≈ 24.7 µM)
CCOC(=O)c1c(CSc2ccccc2)n(-c2ccccc2)c2ccc(O)c(CN(C)C)c12	1.4 µg/mL (≈ 3.04 µM)

Structure (SMILES)	IC50
O=C(Oc1ccc(Cl)c2cccnc12)c1ccc(Cl)cc1Cl	11.6 µg/mL (≈ 32.9 µM)
Oc1ccc(Cl)cc1CNc1nc2ccccc2[nH]1	12.1 µg/mL (≈ 44.3 µM)
CCNS(=O)(=O)c1ccc(NC(=O)Nc2cccc(C(F)(F)F)c2)cc1	7.85 µg/mL (≈ 20.3 µM)
O=C(Nc1ccc2ccccc2c1)Nc1ccc2snnc2c1	0.9 µg/mL (≈ 2.81 µM)
CC(=O)Oc1ccccc1C(=O)Nc1ccc(Br)cc1Cl	4.23 µg/mL (≈ 11.5 µM)
Cc1ccc(-c2csc(Nc3ccc(S(N)(=O)=O)cc3)n2)cc1	2.52 µg/mL (≈ 7.29 µM)
Cc1ccc(-c2ccc(/C=C/C(=O)c3ccco3)o2)cc1	1.71 µg/mL (≈ 6.14 µM)
Cc1cccc2c1N(CCOc1ccc(C(C)(C)C)cc1)C(=O)C2=O	> 50 µg/mL (inactive)
Cc1ccc(OCC(=O)c2ccc(Br)cc2)cc1C	47.7 µg/mL (≈ 149 µM)
O=C(NCCCN1CCN(c2ccc(F)cc2)CC1)NC12CC3CC(CC(C3)C1)C2	> 50 µg/mL (inactive)
CC(C)(C)c1ccc(-c2nc(-c3ccncc3)no2)cc1	> 50 µg/mL (inactive)
C(=NN1CCN(C2c3ccccc3-c3ccccc32)CC1)c1ccncc1	11.2 µg/mL (≈ 31.5 µM)
COC(=O)c1sc2nc(-c3ccccc3)nc(N3CCN(C)CC3)c2c1C	> 50 µg/mL (inactive)
O=C(CCN1CCc2ccccc2C1)c1ccc2c(c1)OCCO2	14.9 µg/mL (≈ 46 µM)
Cc1cc2ncn(CCOc3ccc(Cl)cc3)c2cc1C	1.12 µg/mL (≈ 3.72 µM)
CC12CC3CC(C)(C1)CC(C(=O)NC1=NCCS1)(C3)C2	13 µg/mL (≈ 44.3 µM)
Cc1cc(C)cc(C(=O)NC(=S)Nc2cc([N+](=O)[O-])ccc2O)c1	0.4 µg/mL (≈ 1.16 µM)
O=C(Oc1ccc(F)cc1)c1ccc(Oc2ccc([N+](=O)[O-])cc2)cc1	1.12 µg/mL (≈ 3.17 µM)
Cc1ccc(C(=O)N2CCN(c3ccc(NC(=O)COc4c(C)cc(C)cc4Cl)cc3)CC2)cc1	8.74 µg/mL (≈ 17.8 µM)
Cc1cc(=O)oc2cc(OCC(=O)OC3CCCCC3)ccc12	1.47 µg/mL (≈ 4.65 µM)
Oc1c(CN2CCN(c3ccc(F)cc3)CC2)cc(Cl)c2cccnc12	1.07 µg/mL (≈ 2.88 µM)
CCc1nc2sc(C(=O)c3ccccc3)c(N)c2cc1C	> 50 µg/mL (inactive)
O=C(COc1ccc(-c2ccccc2)cc1)OC1CCCCC1	0.65 µg/mL (≈ 2.09 µM)

Structure (SMILES)	IC50
CCCn1c2ccccc2c2nc3ccccc3nc21	> 50 µg/mL (inactive)
COc1ccc(OCc2nn3c(-c4ccc(C(C)(C)C)cc4)nnc3s2)cc1	> 50 µg/mL (inactive)
CCC(C)Oc1ccc(C(=O)NC(=S)Nc2ccc(NC(=O)c3ccco3)cc2)cc1 (stereo not given)	0.36 µg/mL (≈ 0.823 µM)
Cc1ccc2[nH]c3c(c2c1)CCCC3NCCCOc1ccc(F)cc1 (stereo not given)	1.7 µg/mL (≈ 4.82 µM)
COC(=O)c1ccc(OCC(=O)Nc2ccccc2F)cc1	0.55 µg/mL (≈ 1.81 µM)
COc1cc2c(cc1NC(=O)Nc1ccc(Cl)cc1)oc1ccccc12	1.33 µg/mL (≈ 3.63 µM)
CC(C)OC(=O)COc1ccc(-c2ccccc2)cc1	> 50 µg/mL (inactive)
COC(=O)c1c(NC(=O)c2cc3ccccc3oc2=O)sc2c1CCC2	4.29 µg/mL (≈ 11.6 µM)
CCCc1cc(C(=O)OC)c(NC(=O)c2cc3ccccc3oc2=O)s1	39.4 µg/mL (≈ 106 µM)
N#Cc1ccccc1NC(=O)CSc1nc2cc3ccccc3cc2[nH]1	2.68 µg/mL (≈ 7.48 µM)
O=C(COc1ccc(Br)cc1)c1ccc(F)cc1	10.7 µg/mL (≈ 34.5 µM)
Clc1cccc(Nc2nc(NCc3ccco3)c3ccccc3n2)c1	1.05 µg/mL (≈ 2.99 µM)
Cc1ccc(NC(=O)c2cc([N+](=O)[O-])ccc2O)cc1	14.3 µg/mL (≈ 52.4 µM)
O=C(Nc1cccc([N+](=O)[O-])c1)N1CCN(Cc2ccc(Cl)cc2Cl)CC1	5.06 µg/mL (≈ 12.4 µM)
O=C(Cc1ccc(Cl)cc1)Oc1cccc2cccnc12	> 50 µg/mL (inactive)
Cc1ccc(Cl)cc1N1CCN(CC(O)COc2ccc3ccccc3c2)CC1 (stereo not given)	4.13 µg/mL (≈ 10.1 µM)
COc1ccc2nc(C)cc(Nc3ccccc3O)c2c1	8.28 µg/mL (≈ 29.5 µM)
COc1cccc2cc(C(=O)Oc3ccc(Cl)cc3)c(=O)oc12	> 50 µg/mL (inactive)
O=C(Oc1ccc(Cl)cc1)c1ccc(S(=O)(=O)c2ccc(Cl)cc2)cc1	1.02 µg/mL (≈ 2.5 µM)
CCCCOc1ccc(S(=O)(=O)Nc2ccc(C)c(Cl)c2)cc1	5.13 µg/mL (≈ 14.5 µM)
C1=CC2CC1CC2CN1CCC(N(CCc2ccccc2)Cc2ccccc2)CC1 (stereo not given)	1.4 µg/mL (≈ 3.49 µM)
CCCn1c(CNc2ccccc2O)nc2ccccc21	0.34 µg/mL (≈ 1.21 µM)
Cc1ccc(N2CC(C(=O)OCc3cccc(C(=O)Oc4ccccc4)c3)CC2=O)cc1 (stereo not given)	> 50 µg/mL (inactive)

Structure (SMILES)	IC50
CCN1C(=O)c2cccc3c([N+](=O)[O-])ccc(c23)C1=O	> 50 µg/mL (inactive)
C/C(=N/N=C1\NC(=O)C(Cc2cccc(C(F)(F)F)c2)S1)c1ccc(C)cc1 (stereo not given)	4.95 µg/mL (≈ 12.2 µM)
Cc1ccc(Nc2nc(NCc3ccco3)c3ccccc3n2)cc1	1.44 µg/mL (≈ 4.36 µM)
Cc1nc(N2CCN(Cc3ccc4c(c3)OCO4)CC2)nc2c1C(=O)CC(c1ccco1)C2 (stereo not given)	5.06 µg/mL (≈ 11.3 µM)
O=C(Nc1cccc(C(F)(F)F)c1)N1CCN(c2cccc(C(F)(F)F)c2)CC1	5.09 µg/mL (≈ 12.2 µM)
O=C(NC(=S)N1CCN(C/C=C/c2ccccc2)CC1)c1ccc(Cl)cc1	0.39 µg/mL (≈ 0.975 µM)
CCc1c(C)c2ccc(OCC(=O)OC)c(C)c2oc1=O	0.54 µg/mL (≈ 1.86 µM)
OC(COc1ccccc1Cl)CN1CCN(C(c2ccccc2)c2ccccc2)CC1 (stereo not given)	2.51 µg/mL (≈ 5.74 µM)
CCS(=O)(=O)c1nnnn1-c1ccccc1F	> 50 µg/mL (inactive)
O=C(Nc1cccc(C(F)(F)F)c1)C1CCN(C(=O)c2ccc(-c3ccccc3)cc2)CC1	5.84 µg/mL (≈ 12.9 µM)
O=C(Nc1ccc(F)cc1)NC1CCCCCCC1	2.53 µg/mL (≈ 9.57 µM)
O=S1(=O)C=C(Sc2nnc(-c3ccccc3)o2)c2ccccc21	0.31 µg/mL (≈ 0.905 µM)
CCCC(=O)N1CCN(c2ccc(NC(=O)c3cc(Br)ccc3Cl)cc2Cl)CC1	3.52 µg/mL (≈ 7.05 µM)
CCOC(=O)c1sc(NC(=S)NC2CCN(Cc3ccccc3)CC2)c(C(=O)OCC)c1C	> 50 µg/mL (inactive)
O=C1c2cccc3cccc(c23)C(=O)N1CCN1CCN(CC(O)COCc2ccc(Cl)cc2)CC1 (stereo not given)	3.05 µg/mL (≈ 6 µM)
CC(=O)c1ccc(COC(=O)c2ccc([N+](=O)[O-])cc2Cl)cc1	40.7 µg/mL (≈ 122 µM)
COC(=O)c1ccc(OCC(=O)c2ccc(F)cc2)cc1	> 50 µg/mL (inactive)
CSc1ccc(C(CC(=O)c2ccccc2)Nc2ccc(F)cc2)cc1 (stereo not given)	1.47 µg/mL (≈ 4.02 µM)
CCc1cccc(OCC(=O)Nc2ccc([N+](=O)[O-])cc2)c1	11.7 µg/mL (≈ 39.1 µM)
CCOC(=O)COc1ccc2oc(C)c(C(=O)OC)c2c1	6.25 µg/mL (≈ 21.4 µM)
COc1cc(CNCCCO)cc(Cl)c1OCc1ccc(Cl)cc1Cl	6.25 µg/mL (≈ 15.4 µM)
COc1ccc(Cc2nn3c(-c4ccccc4)nnc3s2)cc1	0.63 µg/mL (≈ 1.95 µM)
O=[N+]([O-])c1ncn(Cc2ccc(Cl)cc2)n1	7.25 µg/mL (≈ 30.4 µM)
